Patent publication US3953604A, “1-(2-Substituted-chromonyloxy)-2-hydroxy-3-(substituted phenoxy)propanes” (priority 1973, dated 1976)
Where “and” joins values, the source holds several entries; their conditions need not be identical. Equal entries are not always repeated. Structures can show the parent of a compound that is named as a salt.

Legend:
[1] = system: passive cutaneous anaphylaxis; assay: duration of antiallergic activity by the PCA test, compared directly with DSCG; type: in vivo; settings: rat; for Mean Reaction Diameters in Milimeters After 25 μ moles/kg of Test Compound: 25 μ moles/kg test compound 10 minutes before egg albumin antigen, groups of 10 animals
Description: (§1) The intensity of such PCA reaction is assessed by measuring the diameters of wheals which develop in the skin of the test animal. Details of the PCA test can be found in the following references: I. Motar, Life Sciences, 1:465 (1963); and B. Ogilvie, Immunology, 12:113 (1967).
The duration of antiallergic activity of compounds representative of the above examples was also determined by the PCA test described in Example 66. In each case, 25 μ moles of the test compound were administered 10 minutes before injection of the egg albumin antigen in rats. The following table reports the mean reactions diameters of wheals in milimeters for the compounds described in the above Examples and disodium cromoglycate (DSCG). In order to achieve maxium significance of results, the effect of each compound was compared directly with DSCG using groups of 10 animals selected at random from the same population.

[2] = acute toxicity tests, intravenous, animals observed for one week; settings: in vivo, rat, dose is the maximum possible, limited by solubility, read-out: Therapeutic Ratio (Dose/ID50)
Description: Acute toxicity of compounds representative of the above Examples was determined in rats. The test compounds were administered intravenously in either 40 ml/kg of physiological saline or […] and saline. Compounds which are insoluble in saline were administered in […] and saline. Doses administered represent the maximun dose possible and are limited by solubility factors. ID50 in the table is used as defined in Example 66. Test compounds are identified by their respective Example Number, above.

[3] = system: passive cutaneous anaphylaxis; assay: passive cutaneous anaphylaxis test (PCA), egg albumin as the antigen: antiallergic activity; type: in vivo; settings: iv; rat; injected intravenously together with the antigen; at least 3 groups of 5 rats; read-out: ID50 (dose which reduced the diameter of the wheel by 50%)
Description: Compounds representative of the above examples were evaluated for antiallergic activity in the rat by the passive cutaneous anaphylaxis test (hereafter PCA), utilizing egg albumin as the antigen.
as §1
In the following table, ID50 is the dose which reduced the diameter of the wheel by 50% when injected intravenously together with the antigen. At least 3 groups of 5 rats were used to determine the ID50 for each compound tested. The reference compound utilized was disodium chromoglycate (DSCG). The test compounds are identified by their respective Example Numbers above.

[4] = system: allergic bronchial asthma; settings: in vivo; cited from earlier work

Compound	Mean Reaction Diameters in Milimeters After 25 μ moles/kg of Test Compound [1]	selectivity ratio at 168 h [2]	ED50 [3]	Mean Reaction Diameters in Milimeters After 25 μ moles/kg of DSCG ([1]; 25 μ moles/kg DSCG 10 minutes before egg albumin antigen, direct comparison with the test compound of the same line, disodium salt)	untoward side effects [4]
CC(=O)c1c(O)cccc1OCC(O)COc1cccc(C(F)(F)F)c1 (centres unmarked) [Example 57, 1-(2-Acetyl-3-hydroxphenoxy)-2-Hydroxy-3-(m-trifluoromethylphenoxy) propane]	8.4 ± 0.5 Milimeters				
COc1ccc(OCC(O)COc2cccc3oc(C(=O)O)cc(=O)c23)cc1 (centres unmarked) [Example 15, 1-(2-Carboxychromon-5-yloxy)-2-Hydroxy-3-p-Methoxyphenoxypropane Sodium Salt]	11.0 ± 0.5 Milimeters	> 62	20 µmol/kg		
O=C(O)c1cc(=O)c2c(OCC(O)COc3cccc4oc(C(=O)O)cc(=O)c34)cccc2o1 [DSCG, 1,3-di(2-carboxy-4-oxochromon-5-yloxy)-2-hydroxy-propane disodium salt, reference compound]		> 1150		13.4 ± 0.3 Milimeters and 10.6 ± 0.7 Milimeters and 9.7 ± 0.3 Milimeters and 8.9 ± 0.8 Milimeters and 8.6 ± 0.3 Milimeters and 12.3 ± 0.2 Milimeters	several untoward side effects
O=C(O)c1cc(=O)c2ccc(OCC(O)COc3ccccc3)cc2o1 (centres unmarked) [Example 41, 1-(2-Carboxychromon-7-yloxy)-2-Hydroxy-3-Phenoxypropane Sodium Salt]			14 µmol/kg		
O=C(O)c1cc(=O)c2c(OCC(O)COc3ccccc3)cccc2o1 (centres unmarked) [Example 4, 1-(2-Carboxychromon-5-yloxy)-2-Hydroxy-3-Phenoxypropane Sodium Salt]	13.0 ± 0.3 Milimeters	> 339	6.25 µmol/kg		
O=C(O)c1cc(=O)c2c(OCC(O)COc3ccc(F)cc3)cccc2o1 (centres unmarked) [Example 65, 1-(2-Carboxychromon-5-yloxy)-2-Hydroxy-3-(p-fluorophenoxy)propane Sodium Salt]	12.2 ± 0.2 Milimeters				
O=C(O)c1cc(=O)c2c(OCC(O)COc3ccc(Br)cc3)cccc2o1 (centres unmarked) [Example 8, 1-(2-Carboxychromon-5-yloxy)-2-Hydroxy-3-p-Bromophenoxypropane Sodium Salt]	6.4 ± 0.4 Milimeters	> 40	6.5 µmol/kg		
O=C(O)c1cc(=O)c2c(OCC(O)COc3ccc(Cl)cc3)cccc2o1 (centres unmarked) [Example 11, 1-(2-Carboxychromon-5-yloxy)-2-Hydroxy-3-p-Chlorophenoxypropane]	2.8 ± 0.4 Milimeters	> 43	5.5 µmol/kg		
CCOC(=O)c1cc(=O)c2c(OCC(O)COc3ccc(C#N)cc3)cccc2o1 (centres unmarked) [Example 34, 1-(2-Carbethoxychromon-5-yloxy)-2-Hydroxy-3-p-Cyanophenoxypropane]		> 84	2.5 µmol/kg		
N#Cc1ccc(OCC(O)COc2cccc3oc(C(=O)O)cc(=O)c23)cc1 (centres unmarked) [Example 35, 1-(2-Carboxychromon-5-yloxy)-2-Hydroxy-3-p-Cyanophenoxypropane Sodium Salt]	8.9 ± 0.7 Milimeters	> 3170	0.75 µmol/kg		
CCOC(=O)c1ccc(OCC(O)COc2cccc3oc(C(=O)O)cc(=O)c23)cc1 (centres unmarked) [Example 44, 1-(2-Carboxychromon-5-yloxy)-2-Hydroxy-3-p-Carbethoxyphenoxypropane Sodium Salt]	6.1 ± 0.4 Milimeters		8.25 µmol/kg		
Cc1ccccc1OCC(O)COc1cccc2oc(C(=O)O)cc(=O)c12 (centres unmarked) [Example 19, 1-(2-Carboxychromon-5-yloxy)-2-Hydroxy-3-o-Cresyloxypropane Sodium Salt]	10.3 ± 0.2 Milimeters	> 281	7 µmol/kg		
O=C(O)c1cc(=O)c2c(OCC(O)COc3ccc([N+](=O)[O-])cc3)cccc2o1 (centres unmarked) [Example 38, 1-(2-Carboxychromon-5-yloxy)-2-Hydroxy-3-p-Nitrophenoxypropane Sodium Salt]	11.2 ± 0.3 Milimeters	> 173	3.6 µmol/kg		
O=C(O)c1cc(=O)c2c(OCC(O)COc3ccc(Cl)cc3Cl)cccc2o1 (centres unmarked) [Example 62, 1-(2-Carboxychromon-5-yloxy)-2-Hydroxy-3-(2,4-dichlorophenoxy) propane Sodium Salt]	1.3 ± 0.5 Milimeters				
